Measurements: article PMC3427755 (Organic & biomolecular chemistry, 2012)
Entries after “also recorded” stand apart in the source; their conditions may differ.

Tests used:
SRC = SRC (Homo sapiens, UniProt P12931); test: Kinase profiling, SRC; assay type: biochemical; conditions: read-out: Inhibition rate (%) SRC
IKKβ = target: T1, IKKβ (Homo sapiens, UniProt O14920); test: Kinase profiling, IKKβ; assay type: biochemical; conditions: for inhibition at 1 µM / inhibition at 5 µM: read-out: Inhibition rate (%) IKKβ
T1 sequence (O14920 1-756): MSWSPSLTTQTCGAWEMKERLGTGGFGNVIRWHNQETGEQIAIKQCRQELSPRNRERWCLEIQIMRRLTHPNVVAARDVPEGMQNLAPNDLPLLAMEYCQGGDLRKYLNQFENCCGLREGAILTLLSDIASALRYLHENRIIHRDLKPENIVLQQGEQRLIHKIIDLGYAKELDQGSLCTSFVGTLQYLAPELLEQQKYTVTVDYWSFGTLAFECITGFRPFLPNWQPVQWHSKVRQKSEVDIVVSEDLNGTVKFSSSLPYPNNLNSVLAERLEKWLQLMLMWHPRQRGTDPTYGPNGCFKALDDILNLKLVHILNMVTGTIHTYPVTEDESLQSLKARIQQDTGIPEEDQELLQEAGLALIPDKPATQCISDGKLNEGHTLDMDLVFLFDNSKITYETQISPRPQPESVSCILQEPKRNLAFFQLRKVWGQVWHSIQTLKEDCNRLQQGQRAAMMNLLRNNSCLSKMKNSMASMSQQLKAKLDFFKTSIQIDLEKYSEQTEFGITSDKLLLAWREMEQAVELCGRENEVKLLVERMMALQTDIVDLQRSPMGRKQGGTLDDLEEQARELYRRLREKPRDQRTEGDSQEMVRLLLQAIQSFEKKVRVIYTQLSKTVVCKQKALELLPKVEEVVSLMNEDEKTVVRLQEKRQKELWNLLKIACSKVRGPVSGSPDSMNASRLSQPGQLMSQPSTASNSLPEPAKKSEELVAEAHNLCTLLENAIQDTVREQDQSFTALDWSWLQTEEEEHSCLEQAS

EGFR = EGFR (Homo sapiens, UniProt P00533); test: Kinase profiling, EGFR; assay type: biochemical; conditions: read-out: Inhibition rate (%) EGFR
KDR = KDR (Homo sapiens, UniProt P35968); test: Kinase profiling, KDR; assay type: biochemical; conditions: read-out: Inhibition rate (%) KDR
P38α = P38α (Homo sapiens, UniProt Q16539); test: Kinase profiling, P38α; assay type: biochemical; conditions: read-out: Inhibition rate (%) P38α
cKIT = cKIT (Homo sapiens, UniProt P10721); test: Kinase profiling, cKIT; assay type: biochemical; conditions: read-out: Inhibition rate (%) cKIT
Sequence of cKIT (P10721 26-976): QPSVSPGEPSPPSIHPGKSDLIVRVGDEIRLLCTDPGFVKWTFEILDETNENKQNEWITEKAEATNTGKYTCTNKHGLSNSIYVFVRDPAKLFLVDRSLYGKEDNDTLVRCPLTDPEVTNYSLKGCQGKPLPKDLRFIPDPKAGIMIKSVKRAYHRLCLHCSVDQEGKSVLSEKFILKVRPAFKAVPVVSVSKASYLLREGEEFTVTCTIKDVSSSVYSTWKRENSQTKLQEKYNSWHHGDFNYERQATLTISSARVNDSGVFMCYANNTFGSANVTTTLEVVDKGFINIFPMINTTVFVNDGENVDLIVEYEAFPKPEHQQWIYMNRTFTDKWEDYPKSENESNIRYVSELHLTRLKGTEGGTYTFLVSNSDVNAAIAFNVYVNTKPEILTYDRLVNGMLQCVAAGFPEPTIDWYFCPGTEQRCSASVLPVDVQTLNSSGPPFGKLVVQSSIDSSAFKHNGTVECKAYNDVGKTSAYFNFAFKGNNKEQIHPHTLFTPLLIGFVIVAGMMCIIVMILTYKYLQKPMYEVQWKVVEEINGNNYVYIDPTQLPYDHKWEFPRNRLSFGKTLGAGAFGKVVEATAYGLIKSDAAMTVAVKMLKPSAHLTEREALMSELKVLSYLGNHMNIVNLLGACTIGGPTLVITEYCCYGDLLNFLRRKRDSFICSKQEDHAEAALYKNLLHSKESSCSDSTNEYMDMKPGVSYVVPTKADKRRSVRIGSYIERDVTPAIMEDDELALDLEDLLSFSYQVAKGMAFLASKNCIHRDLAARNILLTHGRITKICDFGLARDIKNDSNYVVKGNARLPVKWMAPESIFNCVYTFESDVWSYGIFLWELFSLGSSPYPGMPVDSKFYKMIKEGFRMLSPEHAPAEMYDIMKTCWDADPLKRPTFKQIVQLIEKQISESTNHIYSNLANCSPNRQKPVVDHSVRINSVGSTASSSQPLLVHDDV

[1] = system: 1205Lu (B-Raf^V600E bearing) melanoma cells; test: Melanoma proliferation assay; assay type: cell-based, human; conditions: dose-dependent, 72 h, Figure 3
PDGFRα = PDGFRα (Homo sapiens, UniProt P16234); test: Kinase profiling, PDGFRα; assay type: biochemical; conditions: read-out: Inhibition rate (%) PDGFRα
Sequence of PDGFRα (P16234 24-1089, species assumed): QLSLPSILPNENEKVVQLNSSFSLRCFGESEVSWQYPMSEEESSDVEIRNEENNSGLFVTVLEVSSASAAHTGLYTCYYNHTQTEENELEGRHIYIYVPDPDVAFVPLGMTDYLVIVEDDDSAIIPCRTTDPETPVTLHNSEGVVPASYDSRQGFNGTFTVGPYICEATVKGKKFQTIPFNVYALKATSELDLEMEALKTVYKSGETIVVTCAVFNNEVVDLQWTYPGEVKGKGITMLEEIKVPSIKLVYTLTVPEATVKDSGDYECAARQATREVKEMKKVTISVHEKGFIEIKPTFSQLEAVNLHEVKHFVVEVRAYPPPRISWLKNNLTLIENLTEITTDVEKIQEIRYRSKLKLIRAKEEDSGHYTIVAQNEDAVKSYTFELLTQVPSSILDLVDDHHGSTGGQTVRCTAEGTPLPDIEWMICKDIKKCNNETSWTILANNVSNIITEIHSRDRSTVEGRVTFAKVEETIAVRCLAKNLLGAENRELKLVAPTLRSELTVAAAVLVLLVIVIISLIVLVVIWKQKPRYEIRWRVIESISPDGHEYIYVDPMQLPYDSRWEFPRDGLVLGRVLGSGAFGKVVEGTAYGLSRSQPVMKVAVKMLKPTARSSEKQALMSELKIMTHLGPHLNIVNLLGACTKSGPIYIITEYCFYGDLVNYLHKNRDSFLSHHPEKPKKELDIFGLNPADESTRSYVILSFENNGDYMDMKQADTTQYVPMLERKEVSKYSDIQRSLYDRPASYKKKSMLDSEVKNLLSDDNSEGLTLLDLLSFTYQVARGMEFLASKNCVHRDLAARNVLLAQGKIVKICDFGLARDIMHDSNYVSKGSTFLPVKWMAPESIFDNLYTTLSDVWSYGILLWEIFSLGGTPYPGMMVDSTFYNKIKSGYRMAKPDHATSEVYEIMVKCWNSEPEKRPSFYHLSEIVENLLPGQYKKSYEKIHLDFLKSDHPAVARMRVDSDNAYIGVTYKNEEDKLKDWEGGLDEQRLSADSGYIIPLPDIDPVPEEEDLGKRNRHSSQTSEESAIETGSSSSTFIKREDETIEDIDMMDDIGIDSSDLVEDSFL

PKCα = PKCα (Homo sapiens, UniProt P17252); test: Kinase profiling, PKCα; assay type: biochemical; conditions: read-out: Inhibition rate (%) PKCα
CDK2 = CDK2 (Homo sapiens, UniProt P24941); test: Kinase profiling, CDK2; assay type: biochemical; conditions: read-out: Inhibition rate (%) CDK2
[2] = system: WM983B (B-Raf^V600E bearing) melanoma cells; test: Melanoma proliferation assay; assay type: cell-based, human; conditions: dose-dependent, 72 h, Figure 3
FGFR1 = FGFR1 (Homo sapiens, UniProt P11362); test: Kinase profiling, FGFR1; assay type: biochemical; conditions: for inhibition at 1 µM / inhibition at 5 µM: read-out: Inhibition rate (%) FGFR1
[3] = system: normal human primary fibroblasts (FF2508); test: Proliferation assay; assay type: cell-based; conditions: dose-dependent, 72 h, Figure 3
IGF1R = IGF1R (Homo sapiens, UniProt P08069); test: Kinase profiling, IGF1R; assay type: biochemical; conditions: read-out: Inhibition rate (%) IGF1R
Sequence of IGF1R (P08069 31-1367, species assumed): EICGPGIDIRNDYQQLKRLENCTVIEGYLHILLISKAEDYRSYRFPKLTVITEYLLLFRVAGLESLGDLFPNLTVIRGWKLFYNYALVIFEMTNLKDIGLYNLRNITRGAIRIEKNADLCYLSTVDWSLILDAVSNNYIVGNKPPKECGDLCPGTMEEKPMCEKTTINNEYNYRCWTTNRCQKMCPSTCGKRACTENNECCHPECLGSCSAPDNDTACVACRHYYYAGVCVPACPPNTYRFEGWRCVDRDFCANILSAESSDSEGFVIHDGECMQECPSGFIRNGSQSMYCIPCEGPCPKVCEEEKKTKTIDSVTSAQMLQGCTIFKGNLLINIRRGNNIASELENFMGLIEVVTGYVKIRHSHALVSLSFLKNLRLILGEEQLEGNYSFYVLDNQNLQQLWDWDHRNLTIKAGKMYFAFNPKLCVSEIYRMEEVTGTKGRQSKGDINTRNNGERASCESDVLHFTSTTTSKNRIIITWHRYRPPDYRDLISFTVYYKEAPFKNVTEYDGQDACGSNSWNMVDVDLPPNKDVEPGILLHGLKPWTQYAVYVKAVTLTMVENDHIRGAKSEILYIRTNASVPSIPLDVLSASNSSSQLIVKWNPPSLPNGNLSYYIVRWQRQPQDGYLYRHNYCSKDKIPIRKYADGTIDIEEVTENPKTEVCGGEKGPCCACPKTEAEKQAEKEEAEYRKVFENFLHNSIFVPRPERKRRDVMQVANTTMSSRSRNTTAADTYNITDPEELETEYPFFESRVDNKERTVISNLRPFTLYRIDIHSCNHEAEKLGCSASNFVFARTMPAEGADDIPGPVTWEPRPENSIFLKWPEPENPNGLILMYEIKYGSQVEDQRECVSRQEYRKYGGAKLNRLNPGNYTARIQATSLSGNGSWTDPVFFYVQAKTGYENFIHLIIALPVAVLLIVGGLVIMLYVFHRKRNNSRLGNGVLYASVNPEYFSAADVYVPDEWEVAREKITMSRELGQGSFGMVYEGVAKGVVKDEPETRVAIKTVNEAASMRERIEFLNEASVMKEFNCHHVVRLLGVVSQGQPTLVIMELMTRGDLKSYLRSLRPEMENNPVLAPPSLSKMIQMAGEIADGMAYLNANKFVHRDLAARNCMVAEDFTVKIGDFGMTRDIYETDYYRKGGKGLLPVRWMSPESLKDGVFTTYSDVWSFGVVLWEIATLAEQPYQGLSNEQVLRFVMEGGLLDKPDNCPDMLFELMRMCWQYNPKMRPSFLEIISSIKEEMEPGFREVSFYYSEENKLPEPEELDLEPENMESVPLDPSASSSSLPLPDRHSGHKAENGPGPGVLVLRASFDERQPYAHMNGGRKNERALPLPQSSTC

LCK = LCK (Homo sapiens, UniProt P06239); test: Kinase profiling, LCK; assay type: biochemical; conditions: read-out: Inhibition rate (%) LCK
Sequence of LCK (P06239 whole entry, species assumed): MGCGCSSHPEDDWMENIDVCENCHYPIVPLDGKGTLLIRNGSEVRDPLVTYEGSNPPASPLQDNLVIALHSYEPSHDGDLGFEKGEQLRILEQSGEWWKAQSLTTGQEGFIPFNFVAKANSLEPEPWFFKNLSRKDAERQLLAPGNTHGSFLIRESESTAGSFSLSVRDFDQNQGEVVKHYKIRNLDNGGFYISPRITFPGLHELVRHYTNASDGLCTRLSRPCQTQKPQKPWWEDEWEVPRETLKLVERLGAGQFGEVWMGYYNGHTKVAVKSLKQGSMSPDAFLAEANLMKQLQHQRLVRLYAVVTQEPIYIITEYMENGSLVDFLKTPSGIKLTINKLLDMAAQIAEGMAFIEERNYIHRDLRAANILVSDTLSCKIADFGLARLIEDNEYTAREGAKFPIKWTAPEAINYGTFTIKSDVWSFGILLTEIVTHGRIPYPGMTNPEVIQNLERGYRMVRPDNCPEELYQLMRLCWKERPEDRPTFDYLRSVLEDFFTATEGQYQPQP

[4] = system: A375 (B-Raf^V600E) malignant melanoma cells; test: Anti-proliferation activity, A375 melanoma cells; assay type: cell-based, human; conditions: for inhibition at 10 µM: Homo sapiens, A-375, read-out: Tumor growth inhibition rate A375(B-Raf^V600E); for Tumor growth inhibition rate A375(B-Raf^V600E): [I]=10μM
[5] = system: WM3918 melanoma cells not expressing mutant B-Raf; test: Melanoma proliferation assay; assay type: cell-based, human; conditions: dose-dependent, 72 h, Figure 3
AKT1 = AKT1 (Homo sapiens, UniProt P31749); test: Kinase profiling, AKT1; assay type: biochemical; conditions: read-out: Inhibition rate (%) AKT1
B-Raf^WT = B-Raf^WT (Homo sapiens, UniProt P15056); test: In vitro B-Raf kinase assay; assay type: biochemical
ERK1 = ERK1 (Homo sapiens, UniProt P27361); test: Kinase profiling, ERK1; assay type: biochemical; conditions: read-out: Inhibition rate (%) ERK1
Sequence of ERK1 (P27361 whole entry, species assumed): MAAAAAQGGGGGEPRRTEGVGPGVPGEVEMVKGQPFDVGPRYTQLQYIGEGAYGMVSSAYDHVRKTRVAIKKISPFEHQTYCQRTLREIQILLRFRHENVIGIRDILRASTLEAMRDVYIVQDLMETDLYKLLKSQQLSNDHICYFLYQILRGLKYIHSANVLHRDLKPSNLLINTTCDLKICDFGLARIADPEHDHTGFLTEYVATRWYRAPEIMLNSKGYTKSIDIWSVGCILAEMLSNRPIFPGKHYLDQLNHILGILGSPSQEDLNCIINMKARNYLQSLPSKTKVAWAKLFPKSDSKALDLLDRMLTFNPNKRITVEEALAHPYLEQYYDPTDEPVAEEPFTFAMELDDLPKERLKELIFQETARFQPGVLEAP

MET = MET (Homo sapiens, UniProt P08581); test: Kinase profiling, MET; assay type: biochemical; conditions: read-out: Inhibition rate (%) MET
B-Raf^V600E = B-Raf^V600E (Homo sapiens, UniProt P15056, V600E); test: In vitro B-Raf kinase assay; assay type: biochemical
[6] = system: SW620 (B-Raf^WT) human colonic carcinoma cells; test: Anti-proliferation activity, SW620 cells; assay type: cell-based; conditions: SW-620, read-out: Tumor growth inhibition rate SW620 (B-Raf)
[7] = system: patients harboring the B-Raf^V600E mutation; conditions: cited from earlier work
[8] = read-out: Inhibition rate (%) B-Raf^V600E

SMILES | inhibition at 1 µM (SRC) [%] | inhibition at 5 µM (SRC) [%] | inhibition at 1 µM (IKKβ) [%] | inhibition at 5 µM (IKKβ) [%] | inhibition at 5 µM (EGFR) [%] | inhibition at 5 µM (KDR) [%] | inhibition at 1 µM (cKIT) [%] | inhibition at 5 µM (cKIT) [%] | proliferation of 1205Lu cells [1] | inhibition at 1 µM (PDGFRα) [%] | inhibition at 5 µM (PDGFRα) [%] | inhibition at 5 µM (PKCα) [%] | inhibition at 1 µM (CDK2) [%] | inhibition at 5 µM (CDK2) [%] | proliferation of WM983B cells [2] | inhibition at 1 µM (FGFR1) [%] | inhibition at 5 µM (FGFR1) [%] | proliferation of FF2508 fibroblasts [3] | inhibition at 1 µM (IGF1R) [%] | inhibition at 10 µM [4] [%] | other results
O=C1NC(=S)NC(=O)C1=Cc1ccc(-c2ccc(Br)cc2)o1 [Compound 22f, 5-[5-(4-bromo-phenyl)-furan-2ylmethylene]-2-thioxo-dihydro-pyrimidine-4,6-dione] | 8.6 | 28.3 | 27.8 | 52.1 | 46.1 | 6.1 | 18.6 | 40.3 | significantly inhibited | 7.2 | 20.4 | 26.4 | 11.6 | 39.7 | significantly inhibited | 15 | 72.2 | significantly more resistant | 9.5 | 65.3 | Inhibition rate (%) IKKβ (IKKβ; 5μM, ATP at Km): significantly inhibited; inhibition at 1 µM (EGFR): 12.6%; inhibition at 1 µM (KDR): 3.9%; inhibition at 5 µM (P38α): 7.7%; inhibition at 1 µM (PKCα): 16.2%; Inhibition rate (%) FGFR1 (FGFR1; 5μM, ATP at Km): significantly inhibited; inhibition at 5 µM (IGF1R): 15.6%; inhibition at 1 µM (LCK): 10.5%; inhibition at 5 µM (LCK): 10.5%; Tumor growth inhibition rate A375(B-Raf^V600E) [4]: potent growth inhibition activity; proliferation of WM3918 cells [5]: significantly more resistant; inhibition at 1 µM (AKT1): 10.8%; inhibition at 5 µM (AKT1): 20.3%; IC50 (B-Raf^WT): 0.6 µM; inhibition at 1 µM (ERK1): 14.5%; inhibition at 5 µM (ERK1): 30.7%; inhibition at 1 µM (MET): 34.2%; inhibition at 5 µM (MET): 42.2%
CC(C)(C)c1ccc(-c2ccc(C=C3C(=O)NC(=S)NC3=O)o2)cc1 [Compound 22i, 5-[5-(4-tert-butyl-phenyl)-furan-2ylmethylene]-2-thioxo-dihydro-pyrimidine-4,6-dione] |  |  |  |  |  |  |  |  |  |  |  |  |  |  |  |  |  |  |  | 95.4 | inhibition at 0.5 µM (B-Raf^V600E; [8]): 36%; inhibition at 2 µM (B-Raf^V600E; [8]): 57%; inhibition at 10 µM [6]: 7.6%; Tumor growth inhibition rate A375(B-Raf^V600E) ([4]; 10 µM): potent growth inhibition activity; also recorded: virtually complete growth inhibition; inhibition at 2 µM (B-Raf^WT; read-out: Inhibition rate (%) B-Raf): 29%
O=C1NC(=S)NC(=O)C1=Cc1ccc(-c2ccc3c(c2)OCO3)o1 [Compound 22q, 5-[5-(3,4-methylenedioxy)-furan-2ylmethylene]-2-thioxo-dihydro-pyrimidine-4,6-dione] | 6.2 | 15.2 | 15 | 35.7 | 19.4 | 1.2 | 18.3 | 20 | significantly inhibited | 6 | 7.7 | 5.2 | 3.3 | 12.6 | significantly inhibited | 4.9 | 18.6 | significantly more resistant | 5.6 | 77.7 | selectivity for B-Raf^V600E over other tested protein kinases (B-Raf^V600E; panel of 16 protein kinases): more than 10 fold; inhibition at 10 µM [6]: 47.7%; inhibition at 5 µM (IGF1R): 6.8%; inhibition at 5 µM (LCK): 0.8%; Tumor growth inhibition rate A375(B-Raf^V600E) [4]: potent growth inhibition activity; proliferation of WM3918 cells [5]: significantly more resistant; inhibition at 1 µM (AKT1): 4.6%; inhibition at 5 µM (AKT1): 14.5%; inhibition at 1 µM (ERK1): 10%; inhibition at 5 µM (ERK1): 13.7%; inhibition at 1 µM (MET): 18.6%; inhibition at 5 µM (MET): 19.4%
CCCS(=O)(=O)Nc1ccc(F)c(C(=O)c2c[nH]c3ncc(-c4ccc(Cl)cc4)cc23)c1F [Vemurafenib] |  |  |  |  |  |  |  |  |  |  |  |  |  |  |  |  |  |  |  |  | side effects in treated patients ([7]; Vemurafenib treated patients): induction of keratoacanthoma was frequently observed; tumor regression in patients ([7]; patients harboring the B-Raf^V600E mutation): complete or partial tumor regression in the majority of patients
